The supplement of paper PMC10307832

Legend:
Assay in all cases: relative viability (nuclei count vs DMSO), 5 days (fraction); higher = more cells survive
[1] = compound: C[C@@H](N)c1ccc(C(=O)Nc2ccnc3[nH]ccc23)cc1 + O=C(c1cc(Cc2n[nH]c(=O)c3ccccc23)ccc1F)N1CCN(C(=O)C2CC2)CC1 [Olaparib] (partner 8 µM)
Procedure, shortened: (§1)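 One day after seeding in 1536-well plates, lung cancer cell lines were dosed by pin tool. Dosing was either single-drug or a fixed anchor-drug dose plus five library-drug doses (not always all listed) in √10 steps. After 5 days, nuclei were stained in one fix-and-stain step and counted on 4× images, and relative viability is the nuclei count of treated wells over that of vehicle wells, given as the median of duplicate plates.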

[2] = compound: C[C@@H](N)c1ccc(C(=O)Nc2ccnc3[nH]ccc23)cc1 + Cc1nc(NC(=O)N2CCC[C@H]2C(N)=O)sc1-c1ccnc(C(C)(C)C(F)(F)F)c1 [Alpelisib] (partner 2 µM)
Procedure, shortened: as §1

[3] = compound: C1CNCCC1C2=CC(=NN2)C3=CC=NC=C3 + COc1cc2c(Oc3ccc(NC(=O)C4(C(=O)Nc5ccc(F)cc5)CC4)cc3F)ccnc2cc1OCCCN1CCOCC1 [Foretinib] (partner 0.25 µM)
Procedure, shortened: as §1

[4] = compound: C[C@@H](N)c1ccc(C(=O)Nc2ccnc3[nH]ccc23)cc1 + C[C@@H](Oc1cc(-c2cnn(C3CCNCC3)c2)cnc1N)c1c(Cl)ccc(F)c1Cl [Crizotinib] (partner 1 µM)
Procedure, shortened: as §1

UMC-11
relative viability ([1]; first compound 0.04 µM): 0.359
relative viability ([1]; first compound 0.1265 µM): 0.427
relative viability ([1]; first compound 0.4 µM): 0.357
relative viability ([1]; first compound 1.265 µM): 0.303
relative viability ([1]; first compound 4 µM): 0.285
relative viability ([2]; first compound 0.04 µM): 1.12
relative viability ([2]; first compound 0.1265 µM): 1.05
relative viability ([2]; first compound 0.4 µM): 1.14
relative viability ([2]; first compound 1.265 µM): 0.997
relative viability ([2]; first compound 4 µM): 0.467
relative viability ([3]; first compound 0.08 µM): 1
relative viability ([3]; first compound 0.8 µM): 1.17
relative viability ([3]; first compound 2.53 µM): 1.09
relative viability ([3]; first compound 8 µM): 1.09
relative viability ([4]; first compound 0.04 µM): 0.714
relative viability ([4]; first compound 0.1265 µM): 0.615
relative viability ([4]; first compound 0.4 µM): 0.79
relative viability ([4]; first compound 1.265 µM): 0.749
relative viability ([4]; first compound 4 µM): 0.346
